The values below come from patent publication US20210309645A1, “pH DEPENDENT PHOTOACOUSTIC COMPOUNDS AND APPLICATIONS THEREOF” (Wake Forest University, priority 2018, published 2021).

A short description of series [1]: UV-Vis absorbance spectra in variable pH PBS buffer solutions. The series is classed as physicochemical. Particulars: pH 7.4, 7.0, 6.8, 6.5. On the procedure:
Substantial differences were observed between pH 7.4 and pH 7.0 (B), pH 7.0 and 6.8 (C). A small additional peak was observed between pH 6.8 and 6.5 (D). This initial identification of the ability of compound (Ia) to modulate absorbance spectra was solely dependent upon variation in pH as changes in absorbance in various light conditions, various levels of 02, and various cell culture medium (with and without phenol red) (data not shown) were also tested.

The nature of series [2]: Quantum yield and spectral properties in buffered solutions, by comparison with rhodamine. The series is classed as physicochemical. The settings on record: for ΦF (quantum yield): vs rhodamine. The protocol: The quantum yield of compound (Ia) under acidic (pH 6.0), neutral (7.0), and basic (pH 8.0) buffered solutions were calculated by comparison with rhodamine (ΦR=0.95 in ethanol), where ΦF is the quantum yield.

Series [3] can be described thus: Absorption spectra in the presence of ions and reactive cellular products at pH 7.4. The class given is physicochemical. Particulars: Na+, K+, Ca2+, Fe2+, Mg2+, Zn2+, Fe3+ chloride salts, H2O2, GSH, cysteine. The protocol: Since compound (Ia) was designed to spectrally alter based upon H^+ protonation, compound (Ia) was also evaluated in the presence of de-ionized water, phosphate buffer saline, and/or other ions which are present in living organisms (Na^+, K^+, Ca^2+, Fe^2+, Mg^2+, Zn^2+, Fe^3+ and Fe^2+ as chloride salts), and other highly reactive cellular products (H2O2, glutathione (GSH), cysteine) at pH 7.4. […] With the establishment that modulation of spectral absorption corresponded to H^+ without influence of other ions, compound (Ia) was further evaluated as a potential optoacoustic agent.

Series [4] concerns orthotopic pancreatic tumor. The experiment in a line: MSOT imaging of compound accumulation in mice with orthotopic pancreatic tumor. The series is classed as in vivo. The settings on record: SCID mice, iv tail vein, 100 nM in PBS pH 7.4, 100 μl; after 2 h. On the procedure:
Preliminary evaluation of compound (Ia) accumulation within mice was conducted. A matrigel plug containing surgicel mesh and fibroblast was injected subcutaneously to stimulate non-malignant fibrotic tissue two weeks prior to orthotopic tumor implantation in 3 SCID mice. Mice were anesthesized using 1.5% isoflurane and a gas mixture of 0.9 L medical air and 0.1 L 02 to detect tissue hypoxia. Because areas of tissue hypoxia will also have acidic extracellular pH, tissue hypoxia served as an additional acidic extracellular pH (pHe) control. One week post tumor implantation mice were imaged using MSOT to obtain a baseline prior to iv tail vein injection of compound (Ia) at (100 nM in PBS pH 7.4) in 100 μl total volume.

For series [5] the following is noted: in ethanol; cited from earlier work.
Setting [6] is: pH 6.0 (acidic) buffered solution.
Setting [7] is: pH 7.0 (neutral) buffered solution.
Setting [8] is: pH 8.0 (basic) buffered solution.

In the case of `C[N+]1=C(/C=C/C2=C3Oc4cc(O)ccc4C=C3CCC2)C(C)(C)c2c1ccc1c2ccc2cc(Cl)ccc21` [compound (Ia)], the “pH dependence of absorbance spectra (UV-Vis)” value in series [1] is “absorbance spectra modulation corresponding with variable pH PBS buffer solutions”. In addition, in series [2] (setting [6]), the Absmax is on record as 652 nm, the Emmax was 694 nm and the “ΦF (quantum yield)” value was 0.18. In addition, in series [2] (setting [7]), the Absmax is 704 nm, the Emmax turned out to be 745 nm and the “ΦF (quantum yield)” value came out at 0.22. For the same compound, in series [2] (setting [8]), the Absmax is listed as 765 nm, the Emmax stood at 810 nm and the “ΦF (quantum yield)” value stood at 0.23. In addition, the “change of absorption spectra in the presence of other ions and reactive cellular products” value in series [3] is “did not significantly alter”. Moreover, the “accumulation detected by MSOT” value in series [4] is reported as “Pancreatic tumor specific accumulation”.

In the case of rhodamine, the “ΦR (quantum yield of reference)” value in series [5] is 0.95.
